Data published in ChEMBL document CHEMBL5325431, “Synthesis of thieno[3,2-e]pyrrolo[1,2-a]pyrimidine derivatives and their precursors containing 2-aminothiophenes fragments as anticancer agents for therapy of pulmonary metastatic melanoma” (Eur J Med Chem, 2023).
Active and inactive are the calls of the source. The calls are words filed in the database; no cut-off is given here.

Experiments:
B16-F10 [1] = assay: Cytotoxicity against mouse B16-F10 cells assessed as cell survival incubated for 24 hrs by alamarblue staining based analysis; type: functional; conditions: B16-F10, 24 h
[2] = Cytotoxicity against NF2-deficient mouse MEF cells assessed as cell survival incubated for 24 hrs by alamarblue staining based analysis; type: toxicity
MEF = assay: Cytotoxicity against NF2-deficient mouse MEF cells assessed as reduction in cell viability at 0.2 to 55 uM incubated for 24 hrs by alamarblue staining based analysis; type: toxicity; conditions: dose 0.2-55 µM
B16-F10 [3] = assay: Cytotoxicity against mouse B16-F10 cells assessed as cell death by measuring increase in red fluorescence at 0.5 to 10 uM by calcein AM/PI staining based confocal laser scanning microscopy analysis; type: functional; conditions: dose 0.5-10 µM
B16-F10 [4] = assay: Cytotoxicity against mouse B16-F10 cells assessed as cell death by measuring increase in red fluorescence at 10 uM by calcein AM/PI staining based confocal laser scanning microscopy analysis; type: functional
B16-F10 [5] = assay: Induction of apoptosis in mouse B16-F10 cells assessed as viable cells at 5 uM measured after 48 hrs by Annexin V-FITC/7-AAD staining based flow cytometric analysis relative to control; type: functional; conditions: read-out: Activity
B16-F10 [6] = assay: Induction of apoptosis in mouse B16-F10 cells assessed as early apoptotic cells at 5 uM measured after 48 hrs by Annexin V-FITC/7-AAD staining based flow cytometric analysis relative to control; type: functional
B16-F10 [7] = assay: Induction of apoptosis in mouse B16-F10 cells assessed as late apoptotic cells at 5 uM measured after 48 hrs by Annexin V-FITC/7-AAD staining based flow cytometric analysis relative to control; type: functional
B16-F10 [8] = assay: Induction of apoptosis in mouse B16-F10 cells assessed as necrotic cells at 5 uM measured after 48 hrs by Annexin V-FITC/7-AAD staining based flow cytometric analysis relative to control; type: functional
B16-F10 [9] = assay: Induction of apoptosis in mouse B16-F10 cells assessed as early apoptotic cells at 10 uM measured after 48 hrs by Annexin V-FITC/7-AAD staining based flow cytometric analysis relative to control; type: functional
B16-F10 [10] = assay: Induction of apoptosis in mouse B16-F10 cells assessed as necrotic cells at 10 uM measured after 48 hrs by Annexin V-FITC/7-AAD staining based flow cytometric analysis relative to control; type: functional
B16-F10 [11] = assay: Induction of apoptosis in mouse B16-F10 cells assessed as viable cells at 15 uM measured after 48 hrs by Annexin V-FITC/7-AAD staining based flow cytometric analysis relative to control; type: functional; conditions: read-out: Activity
B16-F10 [12] = assay: Induction of apoptosis in mouse B16-F10 cells assessed as early apoptotic cells at 15 uM measured after 48 hrs by Annexin V-FITC/7-AAD staining based flow cytometric analysis relative to control; type: functional
B16-F10 [13] = assay: Induction of apoptosis in mouse B16-F10 cells assessed as late apoptotic cells at 15 uM measured after 48 hrs by Annexin V-FITC/7-AAD staining based flow cytometric analysis relative to control; type: functional
B16-F10 [14] = assay: Induction of apoptosis in mouse B16-F10 cells assessed as necrotic cells at 15 uM measured after 48 hrs by Annexin V-FITC/7-AAD staining based flow cytometric analysis relative to control; type: functional
B16-F10 [15] = assay: Induction of apoptosis in mouse B16-F10 cells assessed as viable cells at 20 uM measured after 48 hrs by Annexin V-FITC/7-AAD staining based flow cytometric analysis relative to control; type: functional; conditions: read-out: Activity
B16-F10 [16] = assay: Induction of apoptosis in mouse B16-F10 cells assessed as early apoptotic cells at 20 uM measured after 48 hrs by Annexin V-FITC/7-AAD staining based flow cytometric analysis relative to control; type: functional
4T1 = assay: Cytotoxicity against mouse 4T1 cells assessed as cell survival incubated for 24 hrs by alamarblue staining based analysis; type: functional; conditions: 4T1, 24 h
[17] = Toxicity in C57BL/6 mouse assessed as body weight gain at 37 mg/kg, ip measured for 22 days; type: organism-based; conditions: in vivo, 528 h, time 22 day
[18] = Toxicity in C57BL/6 mouse assessed as change in body temperature at 37 mg/kg, ip measured for 22 days; type: organism-based; conditions: in vivo, 528 h, time 22 day
[19] = Toxicity in C57BL/6 mouse assessed as effect on AST level at 37 mg/kg, ip measured for 22 days; type: organism-based; conditions: in vivo, 528 h, time 22 day
[20] = Toxicity in C57BL/6 mouse assessed as effect on urea level at 37 mg/kg, ip measured for 22 days; type: organism-based; conditions: in vivo, 528 h, time 22 day
B16-F10 [21] = assay: Antitumor activity against metastatic mouse B16-F10 cells implanted in C57BL/6 mouse assessed as number of lung metastases at 9 to 9.5 mg/kg, ip administered for 12 days by histological analysis (reference value: 150 +/- 7); type: functional; conditions: dose 9-9.5 mg/kg, time 12 day
B16-F10 [22] = assay: Antitumor activity against metastatic mouse B16-F10 cells implanted in C57BL/6 mouse assessed as number of lung metastases at 9 to 9.5 mg/kg, ip administered for 15 days by histological analysis (reference value: 175 +/- 10); type: functional; conditions: dose 9-9.5 mg/kg, time 15 day
B16-F10 [23] = assay: Antitumor activity against metastatic mouse B16-F10 cells implanted in C57BL/6 mouse assessed as number of lung metastases at 9 to 9.5 mg/kg, ip administered for 19 days by histological analysis (reference value: 190 +/- 9); type: functional; conditions: dose 9-9.5 mg/kg, time 19 day
B16-F10 [24] = assay: Antitumor activity against metastatic mouse B16-F10 cells implanted in C57BL/6 mouse assessed as number of lung metastases at 4.6 to 42 mg/kg, ip administered every 3rd day for 22 days measured on day 23 by histological analysis (reference value: 223 +/- 12); type: functional; conditions: dose 4.6-42 mg/kg, time 23 day
[25] = Toxicity in C57BL/6 mouse implanted with mouse B16-F10 cells assessed as liver damage at 4.6 to 42 mg/kg, ip by H and E staining based analysis; type: organism-based; conditions: in vivo, dose 4.6-42 mg/kg
[26] = Toxicity in C57BL/6 mouse implanted with mouse B16-F10 cells assessed as spleen damage at 4.6 to 42 mg/kg, ip by H and E staining based analysis; type: organism-based; conditions: in vivo, dose 4.6-42 mg/kg
[27] = Toxicity in C57BL/6 mouse implanted with mouse B16-F10 cells assessed as kidney damage at 4.6 to 42 mg/kg, ip by H and E staining based analysis; type: organism-based; conditions: in vivo, dose 4.6-42 mg/kg
[28] = Toxicity in C57BL/6 mouse implanted with mouse B16-F10 cells assessed as heart damage at 4.6 to 42 mg/kg, ip by H and E staining based analysis; type: organism-based; conditions: in vivo, dose 4.6-42 mg/kg
[29] = Toxicity in C57BL/6 mouse implanted with mouse B16-F10 cells assessed as liver damage at 9 to 9.5 mg/kg, ip by H and E staining based analysis; type: organism-based; conditions: in vivo, dose 9-9.5 mg/kg
[30] = Toxicity in C57BL/6 mouse implanted with mouse B16-F10 cells assessed as spleen damage at 9 to 9.5 mg/kg, ip by H and E staining based analysis; type: organism-based; conditions: in vivo, dose 9-9.5 mg/kg
[31] = Toxicity in C57BL/6 mouse implanted with mouse B16-F10 cells assessed as kidney damage at 9 to 9.5 mg/kg, ip by H and E staining based analysis; type: organism-based; conditions: in vivo, dose 9-9.5 mg/kg
[32] = Toxicity in C57BL/6 mouse implanted with mouse B16-F10 cells assessed as heart damage at 9 to 9.5 mg/kg, ip by H and E staining based analysis; type: organism-based; conditions: in vivo, dose 9-9.5 mg/kg

| Structure (SMILES) | IC50 (B16-F10 [1]) [µM] | IC50 at 24 h [2] [µM] | Activity (MEF) | Activity (B16-F10 [3]) | Activity (B16-F10 [4]) | viability at 5 µM (B16-F10 [5]) [%] | Activity (B16-F10 [6]) [%] | Activity (B16-F10 [7]) [%] | Activity (B16-F10 [8]) [%] | Activity (B16-F10 [9]) [%] | Activity (B16-F10 [10]) [%] | viability at 15 µM (B16-F10 [11]) [%] | Activity (B16-F10 [12]) [%] | Activity (B16-F10 [13]) [%] | Activity (B16-F10 [14]) [%] | viability at 20 µM (B16-F10 [15]) [%] | Activity (B16-F10 [16]) [%] | IC50 (4T1) [µM] | Activity [17] | Activity [18] | also measured |
| --- | --- | --- | --- | --- | --- | --- | --- | --- | --- | --- | --- | --- | --- | --- | --- | --- | --- | --- | --- | --- | --- |
| CCOC(=O)c1c(NC(=C\C(=O)c2ccc(OC)cc2)/C([O-])=C(\C#N)C(N)=O)sc2c1CCCC2.[K+] | 2.41 | > 100 | Non-Toxic | Active | Active | 5.8 | 2.2 | 43.5 | 48.5 | 0.3 | 14 | 0.3 | 0.5 | 94.3 | 4.9 | 0.3 | 0.8 | 3.8 | Toxic | Non-Toxic | Activity [19]: Non-Toxic; Activity [20]: Non-Toxic; Activity (B16-F10 [21]): 161; Activity (B16-F10 [22]): 94; Activity (B16-F10 [23]): 54; Activity (B16-F10 [24]): ~10; Activity [25]: Non-Toxic; Activity [26]: Non-Toxic; Activity [27]: Non-Toxic; Activity [28]: Non-Toxic; Activity [29]: Non-Toxic; Activity [30]: Non-Toxic; Activity [31]: Non-Toxic; Activity [32]: Non-Toxic |
| CCOC(=O)c1c(N2C(N)=C(C#N)C(=O)/C2=C\C(=O)c2ccc(C)cc2)sc2c1CCCCC2 | 4.8 | > 100 | Non-Toxic | Active | Active | 35.4 | 1.4 | 30.4 | 32.8 | 1.5 | 21.8 | 0.1 | 0.5 | 96.1 | 3.3 | 0.2 | 1 | 6.5 | Toxic | Non-Toxic | Activity [19]: Non-Toxic; Activity [20]: Non-Toxic; Activity (B16-F10 [21]): 145; Activity (B16-F10 [22]): 105; Activity (B16-F10 [23]): 67; Activity (B16-F10 [24]): 29; Activity [25]: Non-Toxic; Activity [26]: Non-Toxic; Activity [27]: Non-Toxic; Activity [28]: Non-Toxic; Activity [29]: Non-Toxic; Activity [30]: Non-Toxic; Activity [31]: Non-Toxic; Activity [32]: Non-Toxic |
| COc1ccc(C(=O)/C=C2\C(=O)C(C#N)=C3NC(=O)c4c(sc5c4CCCCC5)N32)cc1 | 6.2 | > 100 | Non-Toxic | Active | Active | 63.2 | 2.8 | 30.8 | 3.2 | 0.5 | 10.7 | 0.4 | 0.8 | 91.7 | 7.2 | 0.2 | 0.3 | 8.8 | Toxic | Non-Toxic | Activity [19]: Non-Toxic; Activity [20]: Non-Toxic; Activity (B16-F10 [21]): 143; Activity (B16-F10 [22]): 120; Activity (B16-F10 [23]): 87; Activity (B16-F10 [24]): 55; Activity [25]: Non-Toxic; Activity [26]: Non-Toxic; Activity [27]: Non-Toxic; Activity [28]: Non-Toxic; Activity [29]: Non-Toxic; Activity [30]: Non-Toxic; Activity [31]: Non-Toxic; Activity [32]: Non-Toxic |
